Reference: ChEMBL document CHEMBL1201862, “PubChem BioAssay data set” (2004)
Calls of active or inactive are those of the source.

Key:
[1] = biological target: Luciferin 4-monooxygenase (Photinus pyralis, UniProt P08659); experiment: firefly luciferase enzyme inhibitors, dose response, biochemical, luminescence (AID 1891)
[2] = Luminescence Cell-Based Dose Confirmation HTS to Identify Inhibitors of Platelet Dense Granule Release. [Related pubchem assays: 1663 (Primary HTS), 1678 (Summary of Project)]; assay type: functional
[3] = biological target: Large T antigen (Simian virus 40, UniProt P03070); assay type: functional, Betapolyomavirus macacae;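 also: Confirmatory-stage PubChem screen for compounds that inhibit SV40 T antigen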
Chain of Large T antigen (P03070 whole entry): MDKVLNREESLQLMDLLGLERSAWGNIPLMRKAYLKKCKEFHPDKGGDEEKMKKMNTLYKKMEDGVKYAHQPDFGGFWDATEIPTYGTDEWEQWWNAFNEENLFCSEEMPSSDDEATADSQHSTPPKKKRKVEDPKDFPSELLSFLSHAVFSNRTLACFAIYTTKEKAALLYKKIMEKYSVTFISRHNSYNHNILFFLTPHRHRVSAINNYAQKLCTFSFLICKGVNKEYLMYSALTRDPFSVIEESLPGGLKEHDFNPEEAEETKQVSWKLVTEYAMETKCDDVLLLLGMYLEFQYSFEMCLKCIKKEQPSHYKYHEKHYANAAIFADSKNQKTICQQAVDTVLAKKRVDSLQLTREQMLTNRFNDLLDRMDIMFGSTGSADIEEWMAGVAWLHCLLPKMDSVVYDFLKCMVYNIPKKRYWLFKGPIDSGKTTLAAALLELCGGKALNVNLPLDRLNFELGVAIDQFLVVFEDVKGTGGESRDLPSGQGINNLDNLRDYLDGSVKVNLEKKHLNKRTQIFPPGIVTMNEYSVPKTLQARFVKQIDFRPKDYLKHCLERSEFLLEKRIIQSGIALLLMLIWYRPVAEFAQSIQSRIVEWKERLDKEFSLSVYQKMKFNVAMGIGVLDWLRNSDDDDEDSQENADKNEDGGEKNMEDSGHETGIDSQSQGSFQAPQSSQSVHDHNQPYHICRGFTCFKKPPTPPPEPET

[4] = biological target: DNA dC->dU-editing enzyme APOBEC-3A (Homo sapiens, UniProt P31941); experiment: APOBEC3A DNA deaminase inhibitors, dose response, biochemical (AID 504722); assay type: functional
Chain of DNA dC->dU-editing enzyme APOBEC-3A (P31941 whole entry): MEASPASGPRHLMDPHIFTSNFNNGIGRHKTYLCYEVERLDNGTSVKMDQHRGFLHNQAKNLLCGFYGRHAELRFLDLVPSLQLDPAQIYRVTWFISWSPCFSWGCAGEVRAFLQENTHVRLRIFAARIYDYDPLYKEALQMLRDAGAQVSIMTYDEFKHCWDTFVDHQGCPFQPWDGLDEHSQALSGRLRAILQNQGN

[5] = biological target: DNA dC->dU-editing enzyme APOBEC-3G (Homo sapiens, UniProt Q9HC16); experiment: Dose Response confirmation of small molecule APOBEC3G DNA Deaminase Inhibitors via a fluorescence-based single-stranded DNA deaminase assay. [Related pubchem assays (depositor defined):AID493012, AID493028]; assay type: functional
Chain of DNA dC->dU-editing enzyme APOBEC-3G (Q9HC16 whole entry): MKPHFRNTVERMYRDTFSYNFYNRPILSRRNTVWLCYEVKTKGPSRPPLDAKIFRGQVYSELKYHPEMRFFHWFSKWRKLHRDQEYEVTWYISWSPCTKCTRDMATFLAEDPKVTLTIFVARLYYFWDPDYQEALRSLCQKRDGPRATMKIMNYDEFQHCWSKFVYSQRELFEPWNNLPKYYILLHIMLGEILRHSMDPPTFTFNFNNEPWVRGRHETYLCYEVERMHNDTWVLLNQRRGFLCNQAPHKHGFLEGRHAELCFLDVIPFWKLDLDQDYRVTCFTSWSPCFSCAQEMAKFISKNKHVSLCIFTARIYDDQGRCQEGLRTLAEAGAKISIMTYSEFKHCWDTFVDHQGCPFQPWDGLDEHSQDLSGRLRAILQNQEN

[6] = growth suppression of PTEN-null colon cells, dose response, cell-based, HCT116 PTEN knockout (AID 1047); assay type: functional;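 also: HCT116 colon tumor cells with PTEN knocked out; cells exposed to compound for 60 hours before readout; potency for loss of cell viability measured by luminescence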
[7] = growth suppression of beta-catenin-knockout colon cells, dose response, cell-based, HCT116, human colon tumor (AID 1045); assay type: functional;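 also: HCT116 colon tumor cells with beta catenin knocked out; cells exposed to compound for 60 hours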
[8] = THP-1 cell cytotoxicity, dose response, cytotoxicity control for Vif-APOBEC3G degradation inhibitor project, THP-1 cells (AID 1117359); assay type: functional; conditions: Human immunodeficiency virus 1, THP-1
[9] = biological target: T1, Protein RecA (Mycobacterium tuberculosis, UniProt P9WHJ3); experiment: Fluorescence Cell-Free Homogeneous Dose Retest to Identify Inhibitors of RecA-Intein Splicing Activity. [Related pubchem assays (depositor defined):AID2097, AID2223, AID489010, AID492950]; assay type: functional
T1 sequence (P9WHJ3 whole entry): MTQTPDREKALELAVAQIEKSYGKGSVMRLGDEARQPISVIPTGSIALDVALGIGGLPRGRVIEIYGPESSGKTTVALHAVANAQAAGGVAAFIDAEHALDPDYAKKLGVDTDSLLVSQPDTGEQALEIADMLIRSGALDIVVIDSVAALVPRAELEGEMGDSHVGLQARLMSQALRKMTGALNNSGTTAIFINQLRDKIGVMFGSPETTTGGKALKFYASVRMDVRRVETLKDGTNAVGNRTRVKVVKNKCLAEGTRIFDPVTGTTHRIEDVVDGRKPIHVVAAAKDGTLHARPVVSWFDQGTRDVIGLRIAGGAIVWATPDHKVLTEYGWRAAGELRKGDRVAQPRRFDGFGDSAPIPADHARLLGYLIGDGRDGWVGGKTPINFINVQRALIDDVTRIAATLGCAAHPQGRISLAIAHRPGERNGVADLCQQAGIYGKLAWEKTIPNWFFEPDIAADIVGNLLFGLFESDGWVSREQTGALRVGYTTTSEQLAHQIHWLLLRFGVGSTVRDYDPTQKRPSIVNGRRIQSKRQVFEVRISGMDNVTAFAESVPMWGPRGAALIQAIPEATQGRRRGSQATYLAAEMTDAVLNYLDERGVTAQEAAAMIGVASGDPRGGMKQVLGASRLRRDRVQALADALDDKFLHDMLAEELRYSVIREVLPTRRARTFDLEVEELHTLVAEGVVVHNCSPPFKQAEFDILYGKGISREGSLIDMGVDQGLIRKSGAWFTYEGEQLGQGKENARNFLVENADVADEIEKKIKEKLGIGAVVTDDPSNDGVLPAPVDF

[10] = biological target: T2, Replicative DNA helicase DnaB (Mycobacterium tuberculosis, UniProt P9WMR3); experiment: DnaB intein splicing inhibitors, dose response, biochemical, cell-free fluorescence (AID 449749); assay type: functional
T2 sequence (P9WMR3 whole entry): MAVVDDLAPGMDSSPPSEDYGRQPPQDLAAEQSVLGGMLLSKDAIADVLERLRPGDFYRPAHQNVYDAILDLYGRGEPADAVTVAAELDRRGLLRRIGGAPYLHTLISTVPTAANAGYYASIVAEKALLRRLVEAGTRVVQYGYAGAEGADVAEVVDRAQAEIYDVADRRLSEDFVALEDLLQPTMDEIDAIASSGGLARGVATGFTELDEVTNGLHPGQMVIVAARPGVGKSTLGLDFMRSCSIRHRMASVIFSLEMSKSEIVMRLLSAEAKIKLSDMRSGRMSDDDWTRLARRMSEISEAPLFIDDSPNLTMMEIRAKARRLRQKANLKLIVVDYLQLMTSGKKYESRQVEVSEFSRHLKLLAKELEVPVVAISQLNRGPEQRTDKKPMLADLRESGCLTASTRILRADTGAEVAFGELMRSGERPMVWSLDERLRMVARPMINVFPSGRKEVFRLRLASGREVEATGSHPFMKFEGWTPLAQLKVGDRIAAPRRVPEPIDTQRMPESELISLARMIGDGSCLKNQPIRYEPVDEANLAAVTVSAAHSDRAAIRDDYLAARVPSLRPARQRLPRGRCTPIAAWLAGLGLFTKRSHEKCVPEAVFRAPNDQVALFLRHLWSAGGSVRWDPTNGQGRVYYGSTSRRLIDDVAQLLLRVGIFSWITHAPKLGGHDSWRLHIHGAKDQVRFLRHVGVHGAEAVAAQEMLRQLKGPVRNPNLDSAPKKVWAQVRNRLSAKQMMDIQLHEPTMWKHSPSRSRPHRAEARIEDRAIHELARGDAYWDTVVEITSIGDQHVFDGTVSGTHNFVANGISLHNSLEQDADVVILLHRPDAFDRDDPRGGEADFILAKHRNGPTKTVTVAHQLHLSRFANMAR

[11] = biological target: T3, Coagulation factor XII (Homo sapiens, UniProt P00748); assay type: functional;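 also: activated factor XIIa alpha cleaving a fluorogenic AMC peptide substrate; inhibitor potency from loss of enzyme activity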
T3 sequence (P00748 whole entry): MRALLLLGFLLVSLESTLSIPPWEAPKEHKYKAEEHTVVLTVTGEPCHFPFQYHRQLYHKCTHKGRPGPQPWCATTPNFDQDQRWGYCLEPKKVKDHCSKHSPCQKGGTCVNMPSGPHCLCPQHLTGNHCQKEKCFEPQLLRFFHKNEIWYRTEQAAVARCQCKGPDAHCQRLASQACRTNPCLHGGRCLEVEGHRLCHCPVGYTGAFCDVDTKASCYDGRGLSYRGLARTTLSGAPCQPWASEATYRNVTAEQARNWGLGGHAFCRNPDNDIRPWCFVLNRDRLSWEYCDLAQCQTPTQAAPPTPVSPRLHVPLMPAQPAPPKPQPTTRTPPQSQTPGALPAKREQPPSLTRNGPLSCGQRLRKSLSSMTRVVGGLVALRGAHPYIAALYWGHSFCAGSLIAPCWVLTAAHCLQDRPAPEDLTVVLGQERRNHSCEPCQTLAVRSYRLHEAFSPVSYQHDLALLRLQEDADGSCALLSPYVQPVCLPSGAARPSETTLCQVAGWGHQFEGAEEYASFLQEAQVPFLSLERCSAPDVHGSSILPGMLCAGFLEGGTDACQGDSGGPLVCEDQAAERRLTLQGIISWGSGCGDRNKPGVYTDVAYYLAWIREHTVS

[12] = inhibitors of intracellular T. cruzi replication, confirmation, NIH3T3 host cells, beta-gal luminescence (AID 2044); assay type: functional, cell-based;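 also: intracellular parasites grown in NIH/3T3 mouse fibroblasts as host cells; luminescent beta-galactosidase reporter signal from transgenic T. cruzi replicating inside host cells; inhibitors lower the luminescence signal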
[13] = cytotoxicity toward NIH3T3 fibroblasts, dose response, counter-screen, cell-based, ATP luminescence, mouse fibroblasts (AID 2010); assay type: functional;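 also: cells exposed to compound for about 90 hours before reading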

Chain of Luciferin 4-monooxygenase (P08659 whole entry): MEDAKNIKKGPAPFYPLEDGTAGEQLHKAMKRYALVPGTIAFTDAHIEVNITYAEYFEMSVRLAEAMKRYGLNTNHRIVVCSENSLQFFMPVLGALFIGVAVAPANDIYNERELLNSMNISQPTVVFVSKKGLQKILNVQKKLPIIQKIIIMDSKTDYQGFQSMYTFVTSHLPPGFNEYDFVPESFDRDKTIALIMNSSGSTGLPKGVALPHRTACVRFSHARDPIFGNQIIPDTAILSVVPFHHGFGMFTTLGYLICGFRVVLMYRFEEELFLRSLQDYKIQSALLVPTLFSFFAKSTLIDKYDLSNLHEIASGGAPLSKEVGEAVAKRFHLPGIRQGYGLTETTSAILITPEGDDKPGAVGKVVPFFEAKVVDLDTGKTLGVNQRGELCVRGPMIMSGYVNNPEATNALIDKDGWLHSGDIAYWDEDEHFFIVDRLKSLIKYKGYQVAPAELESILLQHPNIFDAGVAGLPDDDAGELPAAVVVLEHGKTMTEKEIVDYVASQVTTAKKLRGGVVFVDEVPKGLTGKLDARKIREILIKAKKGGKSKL

## CCOc1cc(/C=N/NC(=O)N/N=C/c2ccc(O)c(OCC)c2)ccc1O
[1]
  EC50: 1.2 µM (active)
[2]
  EC50: 11.8 µM (active)
[3]
  IC50: 4.27 µM (active)

## S=c1[nH]nc(Cc2cccs2)n1-c1ccccc1
[4]
  IC50: > 100 µM (inactive)
[5]
  IC50: 7.51 µM (active)

## O=C(c1ccc(Cl)c([N+](=O)[O-])c1)N(Cc1ccc(Cl)cc1)C1CCS(=O)(=O)C1 (stereo unspecified)
[6]
  EC50: 26.8 µM (active)
[7]
  EC50: 17.9 µM (active)

## CC1=C/C(=N/c2c(C)n(C)n(-c3ccccc3)c2=O)C=CC1=O
[8]
  CC50: > 40 µM (active)
[9]
  EC50: 14 µM (active)
[10]
  AC50: 29.5 µM (active)

## COC(=O)c1cccc(NS(=O)(=O)c2ccc(OC)c(OC)c2)c1C
[11]
  IC50: > 50 µM (inactive)

## OCCCCNCc1ccc(OCc2ccc(Cl)cc2Cl)cc1
[12]
  EC50: 1.68 µM (active)
[6]
  EC50: 10.9 µM (active)
[7]
  EC50: 9.83 µM (active)
[13]
  EC50: 17.3 µM (active)

## COc1ccc(N2C(=O)C(Cl)=C(N3CCCC(C)C3)C2=O)cc1 (stereo unspecified)
[11]
  IC50: > 50 µM (inactive)
